What was measured:
adult Aedes aegypti = test: cage-in-arm test, complete protection time (CPT); assay type: in vivo; details: 4 mg
Description: For determining the repellency of prepared samples against adults of Aedes aegypti and Aedes albopicus, a cage-in-arm test was carried out as a method for exposure to skin. Namely, on a back of the hand of a rubber glove, a hole with diameter of 5 cm was created, and, onto an exposed back of the testees, various samples prepared by dissolution in 100 μl of ethanol were applied, and then the skin test was carried out. The testees were healthy males between the ages of 21 and 40. The control group was treated with 100 μl of ethanol only. Female adults (5 to 8 day old) of Aedes aegypti or Aedes albopicus (250 to 300 mosquitoes) were added to a cage for growing adult mosquitoes (25×25×25 cm^3), and adapted to the indoor conditions for 12 to 24 hours before starting the test. When the upper arm of the control group is exposed for 1 minute and at least 6 mosquitoes sit on the upper arm or show a bloodsucking behavior, it was determined as sufficient biting pressure, and then the repellency test was carried out. […] The time period between the time point with initial treatment of a material and the time point at which 2 or more mosquitoes continuously sit on the treatment area or show the bloodsucking behavior was defined as complete protection time (CPT). Furthermore, for obtaining the repellency with regard to concentration, exposure was made for a constant time period regardless of the above and the repellency was calculated by using the following formula. Accordingly, the effect was compared among each test samples. All tests were carried out in triplicate. Repellency %=(Number of insects showing bloodsucking behavior in non-treatment group−Number of insects showing bloodsucking behavior in treatment group)/Number of insects showing bloodsucking behavior in non-treatment group)×100 <Tick Repellency>

adult Aedes albopicus = test: cage-in-arm test, repellency and CPT; assay type: in vivo, Aedes albopictus; details: for CPT: 4 mg, adult Aedes albopicus
Description: For determining the repellency of prepared samples against adults of Aedes aegypti and Aedes albopicus, a cage-in-arm test was carried out as a method for exposure to skin. Namely, on a back of the hand of a rubber glove, a hole with diameter of 5 cm was created, and, onto an exposed back of the testees, various samples prepared by dissolution in 100 μl of ethanol were applied, and then the skin test was carried out. The testees were healthy males between the ages of 21 and 40. The control group was treated with 100 μl of ethanol only. Female adults (5 to 8 day old) of Aedes aegypti or Aedes albopicus (250 to 300 mosquitoes) were added to a cage for growing adult mosquitoes (25×25×25 cm^3), and adapted to the indoor conditions for 12 to 24 hours before starting the test. When the upper arm of the control group is exposed for 1 minute and at least 6 mosquitoes sit on the upper arm or show a bloodsucking behavior, it was determined as sufficient biting pressure, and then the repellency test was carried out. With an interval of 30 minutes, by exposing the upper arm, which has been treated with the above composition, for 3 minutes, and, when the adult mosquito sits on the arm for 2 seconds or longer or at least two mosquitoes showing the behavior of mouth injection to skin or direct bloodsucking are found from consecutive tests, the test was stopped. The time period between the time point with initial treatment of a material and the time point at which 2 or more mosquitoes continuously sit on the treatment area or show the bloodsucking behavior was defined as complete protection time (CPT). Furthermore, for obtaining the repellency with regard to concentration, exposure was made for a constant time period regardless of the above and the repellency was calculated by using the following formula. Accordingly, the effect was compared among each test samples. All tests were carried out in triplicate. Repellency %=(Number of insects showing bloodsucking behavior in non-treatment group−Number of insects showing bloodsucking behavior in treatment group)/Number of insects showing bloodsucking behavior in non-treatment group)×100 <Tick Repellency>
For reference, comparison of the mosquito repellency was made by using clove oil as a natural positive control group and DEET as a synthetic positive control group.
To determine the repellency of plant essential oil alone against adult Aedes albopicus and nymphs of Haemaphysalis longicornis, the cage-in-arm test and finger-tip method were carried out, in the same manner as Examples 1-2 and 1-3, with each of 16 kinds of plant essential oil of Table 4.

Work on COc1cc(CN)ccc1O.Cl [4-hydroxy-3-methoxybenzylamine hydrochloride] yielded a CPT (adult Aedes aegypti; adult Aedes aegypti) of 10 min.
With CCN(CC)C(=O)c1cccc(C)c1 [DEET, N,N-diethyl-m-toluamide] the CPT (adult Aedes aegypti; adult Aedes aegypti) was 90 min, the CPT (adult Aedes aegypti; adult Aedes aegypti (Table 6)) was 90 min and the “Repellency (mean ± SE, %)” value (adult Aedes albopicus; 0.03 mg/cm^2, 10 minutes) was 77 ± 5.8%. For the same compound, the “Repellency (mean ± SE, %)” value (adult Aedes albopicus; 0.03 mg/cm^2, 30 minutes) was 67 ± 3.3%, the “Repellency (mean ± SE, %)” value (adult Aedes albopicus; 0.03 mg/cm^2, 60 minutes) was 69 ± 6.9% and the “Repellency (mean ± SE, %)” value (adult Aedes albopicus; 0.03 mg/cm^2, 90 minutes) was 19 ± 5.2%. The “Repellency (mean ± SE, %)” value (adult Aedes albopicus; 0.10 mg/cm^2, 10 minutes) was 100 ± 0%, the “Repellency (mean ± SE, %)” value (adult Aedes albopicus; 0.10 mg/cm^2, 30 minutes) was 96 ± 2.6% and the “Repellency (mean ± SE, %)” value (adult Aedes albopicus; 0.10 mg/cm^2, 60 minutes) was 86 ± 4.2%. For the same compound, the “Repellency (mean ± SE, %)” value (adult Aedes albopicus; 0.10 mg/cm^2, 90 minutes) was 83 ± 4.3%, the “Repellency (mean ± SE, %)” value (adult Aedes albopicus; 0.10 mg/cm^2, 120 minutes) was 82 ± 9.5% and the “Repellency (mean ± SE, %)” value (adult Aedes albopicus; 0.10 mg/cm^2, 150 minutes) was 57 ± 5.2%. For the same compound, the “Repellency (mean ± SE, %)” value (adult Aedes albopicus; 0.10 mg/cm^2, 180 minutes) was 27 ± 3.8%, the “Repellency (mean ± SE, %)” value (adult Aedes albopicus; 0.20 mg/cm^2, 10 minutes) was 100 ± 0% and the “Repellency (mean ± SE, %)” value (adult Aedes albopicus; 0.20 mg/cm^2, 30 minutes) was 100 ± 0%. The “Repellency (mean ± SE, %)” value (adult Aedes albopicus; 0.20 mg/cm^2, 60 minutes) was 100 ± 0%, the “Repellency (mean ± SE, %)” value (adult Aedes albopicus; 0.20 mg/cm^2, 90 minutes) was 100 ± 0% and the “Repellency (mean ± SE, %)” value (adult Aedes albopicus; 0.20 mg/cm^2, 120 minutes) was 95 ± 3.3%. For the same compound, the “Repellency (mean ± SE, %)” value (adult Aedes albopicus; 0.20 mg/cm^2, 150 minutes) was 96 ± 1.2%, the “Repellency (mean ± SE, %)” value (adult Aedes albopicus; 0.20 mg/cm^2, 180 minutes) was 85 ± 3.0% and the “Repellency (mean ± SE, %)” value (adult Aedes albopicus; 0.25 mg/cm^2, 10 minutes) was 100 ± 0%. The “Repellency (mean ± SE, %)” value (adult Aedes albopicus; 0.25 mg/cm^2, 30 minutes) was 100 ± 0%, the “Repellency (mean ± SE, %)” value (adult Aedes albopicus; 0.25 mg/cm^2, 60 minutes) was 100 ± 0% and the “Repellency (mean ± SE, %)” value (adult Aedes albopicus; 0.25 mg/cm^2, 90 minutes) was 100 ± 0%. For the same compound, the “Repellency (mean ± SE, %)” value (adult Aedes albopicus; 0.25 mg/cm^2, 120 minutes) was 100 ± 0%, the “Repellency (mean ± SE, %)” value (adult Aedes albopicus; 0.25 mg/cm^2, 150 minutes) was 100 ± 0% and the “Repellency (mean ± SE, %)” value (adult Aedes albopicus; 0.25 mg/cm^2, 180 minutes) was 84 ± 4.3%. It also gave a CPT (adult Aedes albopicus) of 90 min.
In the case of C=CCc1ccc(O)c(OC)c1 [Eugenol (clove), Eugenol], the CPT (adult Aedes albopicus) is reported as 10 min.
